Results from ChEMBL document CHEMBL5120746, “Novel 5-fluorouracil sensitizers for colorectal cancer therapy: Design and synthesis of S1P receptor 2 (S1PR2) antagonists” (Eur J Med Chem, 2022).
Active and inactive are the calls of the source. No cut-off for these calls is given here.

Tests used:
[1] = Half life in Sprague-Dawley rat blood at 1 mg/kg, iv measured up to 24 hrs by HPLC-MS/MS analysis; type: ADME, organism-based
[2] = target: ATP-dependent translocase ABCB1 (Homo sapiens, UniProt P08183); assay: Reversal of Pgp-mediated paclitaxel resistance in human LCC6MDR cells assessed as P-gp modulating activity by measuring relative fold at 1 uM; type: cell-based
Chain of ATP-dependent translocase ABCB1 (P08183 whole entry): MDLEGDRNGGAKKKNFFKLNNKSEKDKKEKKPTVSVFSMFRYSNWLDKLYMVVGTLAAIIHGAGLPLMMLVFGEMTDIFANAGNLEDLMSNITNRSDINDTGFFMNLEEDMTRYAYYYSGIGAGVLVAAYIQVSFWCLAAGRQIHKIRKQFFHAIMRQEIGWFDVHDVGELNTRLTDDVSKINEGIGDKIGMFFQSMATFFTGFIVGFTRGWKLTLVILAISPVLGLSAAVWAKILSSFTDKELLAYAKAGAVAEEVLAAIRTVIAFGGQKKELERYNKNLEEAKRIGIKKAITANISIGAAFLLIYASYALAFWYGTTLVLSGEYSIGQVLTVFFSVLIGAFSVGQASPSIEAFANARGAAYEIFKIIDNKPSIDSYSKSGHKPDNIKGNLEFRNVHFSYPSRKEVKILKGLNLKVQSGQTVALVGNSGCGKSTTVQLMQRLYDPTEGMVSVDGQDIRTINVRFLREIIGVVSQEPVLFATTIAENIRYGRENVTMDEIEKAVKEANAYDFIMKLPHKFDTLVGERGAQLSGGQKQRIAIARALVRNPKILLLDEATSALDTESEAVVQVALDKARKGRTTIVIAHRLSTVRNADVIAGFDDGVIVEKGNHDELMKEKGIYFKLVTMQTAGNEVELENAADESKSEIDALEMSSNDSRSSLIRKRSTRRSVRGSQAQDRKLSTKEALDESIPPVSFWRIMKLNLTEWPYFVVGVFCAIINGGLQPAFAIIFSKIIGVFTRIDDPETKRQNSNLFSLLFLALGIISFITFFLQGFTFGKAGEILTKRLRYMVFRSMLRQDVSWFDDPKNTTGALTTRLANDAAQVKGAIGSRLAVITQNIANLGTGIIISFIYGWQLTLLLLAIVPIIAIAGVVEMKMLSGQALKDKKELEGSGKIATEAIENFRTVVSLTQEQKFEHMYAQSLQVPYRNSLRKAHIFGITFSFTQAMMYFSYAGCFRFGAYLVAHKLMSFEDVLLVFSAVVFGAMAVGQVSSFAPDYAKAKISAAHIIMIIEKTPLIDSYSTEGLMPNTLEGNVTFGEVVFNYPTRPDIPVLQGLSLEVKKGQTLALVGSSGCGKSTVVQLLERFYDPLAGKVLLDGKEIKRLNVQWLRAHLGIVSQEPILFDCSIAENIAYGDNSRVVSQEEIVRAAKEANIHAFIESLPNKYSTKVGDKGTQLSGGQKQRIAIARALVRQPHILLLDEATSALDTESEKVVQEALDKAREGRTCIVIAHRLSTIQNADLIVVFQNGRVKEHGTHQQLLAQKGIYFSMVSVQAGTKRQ

[3] = system: HCT-116; assay: Reversal of 5-FU resistance against 5-FU resistant DPD expressed human HCT-116 cells assessed as reduction in cell viability incubated for 48 hrs in presence of 5-FU by MTT assay; type: functional, cell-based; details: HCT-116, 48 h
[4] = target: Sphingosine 1-phosphate receptor 2 (Homo sapiens, UniProt O95136); assay: Antagonist activity at S1PR2 in human SW620/5-FU cells assessed as reduction of DPD-catalyzed 5-FU degradation by measuring intracellular 5-FU level at 20 uM measured after 24 hrs by HPLC-UV analysis; type: functional, cell-based; details: filed as antagonist
Chain of Sphingosine 1-phosphate receptor 2 (O95136 whole entry): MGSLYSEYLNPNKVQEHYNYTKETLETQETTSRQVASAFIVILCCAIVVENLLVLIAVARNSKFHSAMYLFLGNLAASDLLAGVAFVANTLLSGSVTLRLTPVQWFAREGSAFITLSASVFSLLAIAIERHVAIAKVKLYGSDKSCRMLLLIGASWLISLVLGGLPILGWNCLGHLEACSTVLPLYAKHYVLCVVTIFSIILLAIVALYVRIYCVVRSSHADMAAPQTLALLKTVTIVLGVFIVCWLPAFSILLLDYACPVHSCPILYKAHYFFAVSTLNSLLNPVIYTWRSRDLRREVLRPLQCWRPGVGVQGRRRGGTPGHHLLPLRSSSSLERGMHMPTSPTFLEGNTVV

[5] = system: SW620/5-FU; assay: Antitumor activity against human SW620/5-FU cells xenografted in SPF nude mouse assessed as tumor growth inhibition at 30 mg/kg, iv QD for 21 days and measured every 4 days in presence of 5-fluorouracil; type: functional; details: 504 h, time 21 day, read-out: TGI
[6] = system: SW620/5-FU; assay: Downregulation of DPD expression level in human SW620/5-FU cells measured after 12 hrs by Western blot analysis; type: functional, cell-based; details: dose 5-40 µM, DDE = dose-dependent effect
[7] = MRT (0 to infinity) in Sprague-Dawley rat plasma at 1 mg/kg, iv measured up to 24 hrs by HPLC-MS/MS analysis; type: ADME, organism-based
[8] = system: SW620/5-FU; assay: Antitumor activity against human SW620/5-FU cells xenografted in SPF nude mouse assessed as reduction in tumor weight at 7.5 mg/kg, iv QD for 21 days in presence of 5-fluorouracil; type: functional; parameters: scale not given: the % may be the effect or the level left; details: time 21 day
[9] = Clearance in Sprague-Dawley rat plasma at 1 mg/kg, iv measured up to 24 hrs by HPLC-MS/MS analysis; type: ADME, organism-based; details: in vivo
[10] = AUC (0 to infinity) in Sprague-Dawley rat blood at 1 mg/kg, iv measured up to 24 hrs by HPLC-MS/MS analysis; type: ADME, organism-based; parameters: dose 1 mg/kg, time < 24 hrs, route iv
[11] = Toxicity in SPF nude mouse xenografted with human SW620/5-FU cells assessed as change in body weight at 7.5 mg/kg, iv QD for 21 days and measured every 4 days in presence of 5-fluorouracil; type: organism-based; details: in vivo, 504 h, time 21 day
[12] = Half life in Sprague-Dawley rat plasma at 1 mg/kg, iv measured up to 24 hrs by HPLC-MS/MS analysis; type: ADME, organism-based; details: in vivo
[13] = system: Mus musculus; assay: Downregulation of DPD expression in tumor of SPF nude mouse xenografted with human SW620/5-FU cells at 7.5 to 15 mg/kg, iv QD for 21 days by immunohistochemical analysis; type: functional, organism-based; details: dose 7.5-15 mg/kg, time 21.0 day
[14] = system: SW620/5-FU; assay: Antitumor activity against human SW620/5-FU cells xenografted in SPF nude mouse assessed as reduction in tumor weight at 15 mg/kg, iv QD for 21 days in presence of 5-fluorouracil; type: functional; parameters: scale not given: the % may be the effect or the level left; details: time 21 day
[15] = system: Mus musculus; assay: Downregulation of DPD expression in liver of SPF nude mouse xenografted with human SW620/5-FU cells at 15 to 30 mg/kg, iv QD for 21 days in presence of 5-fluorouracil by Western blot analysis; type: functional, organism-based; details: dose 15-30 mg/kg, time 21.0 day
[16] = system: SW620/5-FU; assay: Antitumor activity against human SW620/5-FU cells xenografted in SPF nude mouse assessed as tumor growth inhibition at 15 mg/kg, iv QD for 21 days and measured every 4 days in presence of 5-fluorouracil; type: functional; details: 504 h, time 21 day, read-out: TGI
[17] = system: NCM460; assay: Cytotoxicity against human NCM460 cells assessed as reduction in cell viability at 5 to 80 uM; type: toxicity, cell-based; details: ncm460, 80 µM, dose 5-80 µM
[18] = system: NCM460; assay: Cytotoxicity against human NCM460 cells assessed as reduction in cell viability at 5 to 80 uM in presence of 5-fluorouracil; type: toxicity, cell-based; details: ncm460, 80 µM, dose 5-80 µM
[19] = system: SW620/5-FU; assay: Downregulation of DPD expression in human SW620/5-FU cells at 10 uM by Western blot analysis; type: functional, cell-based; details: time 4-48 hrs, TDE = time-dependent effect
[20] = system: SW620/5-FU; assay: Antitumor activity against human SW620/5-FU cells xenografted in SPF nude mouse assessed as reduction in tumor weight at 15 mg/kg, iv QD for 21 days; type: functional; parameters: scale not given: the % may be the effect or the level left; details: time 21 day
[21] = Toxicity in SPF nude mouse xenografted with DPD expressed human HCT-116 cells assessed as change in body weight at 15 mg/kg, iv QD for 20 days and measured every 4 days; type: organism-based; details: in vivo, 480 h, time 20 day
[22] = MRT (0 to t) in Sprague-Dawley rat plasma at 1 mg/kg, iv measured up to 24 hrs by HPLC-MS/MS analysis; type: ADME, organism-based
[23] = system: Mus musculus; assay: Downregulation of S1PR2 expression in tumor SPF nude mouse xenografted with human SW620/5-FU cells at 7.5 to 15 mg/kg, iv QD for 21 days by immunohistochemical analysis; type: functional, organism-based; details: dose 7.5-15 mg/kg, time 21.0 day
[24] = AUC (0 to t) in Sprague-Dawley rat plasma at 1 mg/kg, iv measured up to 24 hrs by HPLC-MS/MS analysis; type: ADME, organism-based; parameters: dose 1 mg/kg, time < 24 hrs, route iv
[25] = system: HCT-116; assay: Downregulation of DPD expression in DPD expressed human HCT-116 cells measured after 12 hrs by Western blot analysis; type: functional, cell-based; details: dose 5-40 µM, DDE = dose-dependent effect
[26] = Initial drug concentration in Sprague-Dawley rat plasma at 1 mg/kg, iv measured up to 24 hrs by HPLC-MS/MS analysis; type: ADME, organism-based
[27] = MRT (0 to infinity) in Sprague-Dawley rat blood at 1 mg/kg, iv measured up to 24 hrs by HPLC-MS/MS analysis; type: ADME, organism-based
[28] = system: SW620/5-FU; assay: Reversal of 5-FU resistance against human SW620/5-FU cells assessed as reduction in cell viability incubated for 48 hrs in presence of 5-FU by MTT assay; type: functional, cell-based
[29] = system: Mus musculus; assay: Downregulation of DPD expression in tumor of SPF nude mouse xenografted with human SW620/5-FU cells administered intravenously QD for 21 days by Western blot analysis; type: functional; details: dose 7.5-15 mg/kg, route iv, time 21.0 day, DDE = dose-dependent effect
[30] = system: SW620/5-FU; assay: Antitumor activity against human SW620/5-FU cells xenografted in SPF nude mouse assessed as tumor growth inhibition at 7.5 mg/kg, iv QD for 21 days and measured every 4 days; type: functional; details: 504 h, time 21 day, read-out: TGI
[31] = Initial drug concentration in Sprague-Dawley rat blood at 1 mg/kg, iv measured up to 24 hrs by HPLC-MS/MS analysis; type: ADME, organism-based
[32] = system: HCT-116; assay: Antitumor activity against DPD expressed human HCT-116 cells xenografted in SPF nude mouse assessed as tumor growth inhibition at 15 mg/kg, iv QD for 20 days and measured every 4 days in presence of 5-fluorouracil; type: functional; details: HCT-116, 480 h, time 20 day, read-out: TGI
[33] = Downregulation of S1PR2 mRNA expression level in DPD expressed human HCT-116 cells at 20 uM measured after 24 hrs by qRT-PCR analysis; type: functional

half-life [1]: 6 h
fold change (FC) [2]: 1.4
EC50 [3]: 8.21 µM
Activity [4]: 7.8 µM
MRT inf [7]: 8.3 h
CL [9]: 1.5 mL/min/kg
AUC(0-inf) [10]: 11200 ng·h/mL
t1/2 [12]: 4.4 h
MRT last at 24 h [22]: 7.6 h
AUC(0-t) at 24 h [24]: 10100 ng·h/mL
C0 at 24 h [26]: 4040 ng/mL
MRT inf [27]: 8.5 h
EC50 [28]: 9.15 µM
C0 at 24 h [31]: 4970 ng/mL
Structure (SMILES): Cn1ncc2c(-c3ccc(F)cc3)cc(NNC(=O)Nc3cc(Cl)nc(Cl)c3)nc21
inhibition in vivo at 30 mg/kg [5]: 62.1%
Activity [6]: Dde
Activity [8]: 47.79%
Activity [11]: Non-Toxic
Activity [13]: Active
Activity [14]: 51.72%
Activity [15]: Active
inhibition in vivo at 15 mg/kg [16]: 52%
Activity [17]: Toxic
Activity [18]: Toxic
Activity [19]: Tde
Activity [20]: 12.34%
Activity [21]: Non-Toxic
Activity [23]: Active
Activity [25]: Dde
Activity [29]: Dde
inhibition in vivo at 7.5 mg/kg [30]: 14.7%
inhibition in vivo at 15 mg/kg [32]: 70.1%
Activity [33]: 25%
